Data published in patent US11702422B2, “Imidazopyridazines as modulators of IL-17” (Janssen Pharmaceutica NV, priority 2020, dated 2023).

Columns and labels:
[1] = molecular target: IL-17A(FLAG-Tagged): IL-17RA(His-Tagged) (Homo sapiens, UniProt Q16552, K93Q); assay: IL-17A(FLAG-Tagged): IL-17RA(His-Tagged) Binding Disruption Eu-HTRF Assay; details: IL-17A/IL-17RA binding disruption, simple average if tested more than once
How it was run: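 IC50 comes from a one-site competition fit of the HTRF 665/620 nm ratio. Compound dilutions (2-fold, 22 points) were held 1 h rt with FLAG-tagged IL-17A dimer, then His-tagged IL-17RA plus Eu-cryptate anti-FLAG and D2 anti-His antibodies were added for 2 h rt.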

[2] = system: IL-17A-induced G-CSF production in human normal keratinocyte (NHK); assay: NHK Assay: IL-17A-induced G-CSF production in human normal keratinocytes; format: cell-based; details: adult normal human keratinocytes, IL-17A 5 ng/mL, 24 h, simple average if tested more than once
How it was run: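 Adult NHK, 3000-4000 cells/well; rhIL-17A + titrated cpd preincubated 1 h rt, then onto cells. Final: IL-17A 5 ng/mL, DMSO 0.2%, 5% FBS. 24 h, 37° C. G-CSF in supernatant by HTRF vs standard curve; IC50. Viability by CellTiter-Glo vs DMSO.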

UniProt Q16552, sequence (Q16552 with tags, fused parts or gaps K93Q): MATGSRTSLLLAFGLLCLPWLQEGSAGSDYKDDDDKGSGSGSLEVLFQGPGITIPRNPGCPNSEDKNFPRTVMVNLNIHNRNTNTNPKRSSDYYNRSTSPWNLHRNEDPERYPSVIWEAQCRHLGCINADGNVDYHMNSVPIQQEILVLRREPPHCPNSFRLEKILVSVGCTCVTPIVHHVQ

| SMILES | IC50 [1] [nM] | IC50 [2] [nM] | IC50 ([2]; Homo sapiens, Keratinocyte) [nM] |
| --- | --- | --- | --- |
| O=C(CC1CC(F)(F)C1)NC(c1cnn2cc([C@@H](NC(=O)c3cnn(CCC(F)(F)F)c3)C3CCC(F)(F)CC3)nc2c1)C1CC1 (single isomer, unassigned) [Example 8, N—((S)-(7-((R*)-Cyclopropyl(2-(3,3-difluorocyclobutyl)acetamido)methyl)imidazo[1,2-b]pyridazin-2-yl)(4,4-difluorocyclohexyl)methyl)-1-(3,3,3-trifluoropropyl)-1H-pyrazole-4-carboxamide] | 220 | 360 | – |
| O=C(CC1CC(F)(F)C1)NC(c1cnn2cc([C@@H](NC(=O)c3cnn(CCC(F)(F)F)c3)C3CCC(F)(F)CC3)nc2c1)C1CC1 (single isomer, unassigned) [Example 9, N—((S)-(7-((S*)-Cyclopropyl(2-(3,3-difluorocyclobutyl)acetamido)methyl)imidazo[1,2-b]pyridazin-2-yl)(4,4-difluorocyclohexyl)methyl)-1-(3,3,3-trifluoropropyl)-1H-pyrazole-4-carboxamide] | 8300 | > 20000 | – |
| CC(C)n1nccc1C(=O)N[C@H](c1cn2ncc(C(NC(=O)CC(C(F)(F)F)C(F)(F)F)C3CC3)cc2n1)C1CCC(F)(F)CC1 (single isomer, unassigned) [Example 10, N—((S)-(7-((R*)-Cyclopropyl(4,4,4-trifluoro-3(trifluoromethyl)butanamido)methyl)imidazo[1,2-b]pyridazin-2-yl)(4,4-difluorocyclohexyl)methyl)-1-isopropyl-1H-pyrazole-5-carboxamide] | 210 | 44 | – |
| CC(C)n1nccc1C(=O)N[C@H](c1cn2ncc(C(NC(=O)CC(C(F)(F)F)C(F)(F)F)C3CC3)cc2n1)C1CCC(F)(F)CC1 (single isomer, unassigned) [Example 11, N-((S)-(7-((S*)-Cyclopropyl(4,4,4-trifluoro-3-(trifluoromethyl)butanamido)methyl)imidazo[1,2-b]pyridazin-2-yl)(4,4-difluorocyclohexyl)methyl)-1-isopropyl-1H-pyrazole-5-carboxamide] | 690 | 1400 | – |
| O=C(CCC(F)(F)F)NC(c1cnn2cc([C@@H](NC(=O)c3ccccc3)C3CCC(F)(F)CC3)nc2c1)C1CC1 (single isomer, unassigned) [Example 12, N—((S)-(7-((R*)-Cyclopropyl(4,4,4-trifluorobutanamido)methyl)imidazo[1,2-b]pyridazin-2-yl)(4,4-difluorocyclohexyl)methyl)benzamide] | 85 | 180 | – |
| CC(C)n1nccc1C(=O)N[C@H](c1cn2ncc(C(NC(=O)CCC(F)(F)F)C3CC3)cc2n1)C1CCC(F)(F)CC1 (single isomer, unassigned) [Example 14, N—((S)-(7-((R*)-Cyclopropyl(4,4,4-trifluorobutanamido)methyl)imidazo[1,2-b]pyridazin-2-yl)(4,4-difluorocyclohexyl)methyl)-1-isopropyl-1H-pyrazole-5-carboxamide] | 120 | 50 | – |
| CC(C)n1nccc1C(=O)N[C@H](c1cn2ncc(C(NC(=O)CCC(F)(F)F)C3CC3)cc2n1)C1CCC(F)(F)CC1 (single isomer, unassigned) [Example 15, N—((S)-(7-((S*)-Cyclopropyl(4,4,4-trifluorobutanamido)methyl)imidazo[1,2-b]pyridazin-2-yl)(4,4-difluorocyclohexyl)methyl)-1-isopropyl-1H-pyrazole-5-carboxamide] | 1900 | 4800 | – |
| O=C(CC(C(F)(F)F)C(F)(F)F)NC(c1cnn2cc([C@@H](NC(=O)c3ccccc3)C3CCC(F)(F)CC3)nc2c1)C1CC1 (single isomer, unassigned) [Example 16, N—((S)-(7-((R*)-Cyclopropyl(4,4,4-trifluoro-3-(trifluoromethyl)butanamido)methyl)imidazo[1,2-b]pyridazin-2-yl)(4,4-difluorocyclohexyl)methyl)benzamide] | 130 | 130 | – |
| O=C(CC(C(F)(F)F)C(F)(F)F)NC(c1cnn2cc([C@@H](NC(=O)c3ccccc3)C3CCC(F)(F)CC3)nc2c1)C1CC1 (single isomer, unassigned) [Example 17, N—((S)-(7-((S*)-Cyclopropyl(4,4,4-trifluoro-3-(trifluoromethyl)butanamido)methyl)imidazo[1,2-b]pyridazin-2-yl)(4,4-difluorocyclohexyl)methyl)benzamide] | 1300 | 1200 | – |
| O=C(CCC(F)(F)F)NC(c1cnn2cc([C@@H](NC(=O)c3cnn(CCC(F)(F)F)n3)C3CCC(F)(F)CC3)nc2c1)C1CC1 (single isomer, unassigned) [Example 18, N—((S)-(7-((R*)-Cyclopropyl(4,4,4-trifluorobutanamido)methyl)imidazo[1,2-b]pyridazin-2-yl)(4,4-difluorocyclohexyl)methyl)-2-(3,3,3-trifluoropropyl)-2H-1,2,3-triazole-4-carboxamide] | 190 | 420 | – |

Continued, in another order:

| IC50 [1] [nM] | SMILES | IC50 [2] [nM] | IC50 ([2]; Homo sapiens, Keratinocyte) [nM] |
| --- | --- | --- | --- |
| 3900 | O=C(CCC(F)(F)F)NC(c1cnn2cc([C@@H](NC(=O)c3cnn(CCC(F)(F)F)n3)C3CCC(F)(F)CC3)nc2c1)C1CC1 (single isomer, unassigned) [Example 19, N—((S)-(7-((S*)-Cyclopropyl(4,4,4-trifluorobutanamido)methyl)imidazo[1,2-b]pyridazin-2-yl)(4,4-difluorocyclohexyl)methyl)-2-(3,3,3-trifluoropropyl)-2H-1,2,3-triazole-4-carboxamide] | 3800 | – |
| 160 | O=C(CC1CC(F)(F)C1)NC(c1cnn2cc([C@@H](NC(=O)c3ccn(CCC(F)(F)F)n3)C3CCC(F)(F)CC3)nc2c1)C1CC1 (single isomer, unassigned) [Example 20, N—((S)-(7-((R*)-Cyclopropyl(2-(3,3-difluorocyclobutyl)acetamido)methyl)imidazo[1,2-b]pyridazin-2-yl)(4,4-difluorocyclohexyl)methyl)-1-(3,3,3-trifluoropropyl)-1H-pyrazole-3-carboxamide] | – | 650 |
| 230 | O=C(CCC(F)(F)F)NC(c1cnn2cc([C@@H](NC(=O)c3ccn(CCC(F)(F)F)n3)C3CCC(F)(F)CC3)nc2c1)C1CC1 (single isomer, unassigned) [Example 21, N—((S)-(7-((R*)-Cyclopropyl(4,4,4-trifluorobutanamido)methyl)imidazo[1,2-b]pyridazin-2-yl)(4,4-difluorocyclohexyl)methyl)-1-(3,3,3-trifluoropropyl)-1H-pyrazole-3-carboxamide] | – | 720 |
| 140 | O=C(CC1CC(F)(F)C1)NC(c1cnn2cc([C@@H](NC(=O)c3cnn(CCC(F)(F)F)n3)C3CCC(F)(F)CC3)nc2c1)C1CC1 (single isomer, unassigned) [Example 22, N—((S)-(7-((R*)-Cyclopropyl(2-(3,3-difluorocyclobutyl)acetamido)methyl)imidazo[1,2-b]pyridazin-2-yl)(4,4-difluorocyclohexyl)methyl)-2-(3,3,3-trifluoropropyl)-2H-1,2,3-triazole-4-carboxamide] | – | 320 |
| 54 | Cn1nccc1C(=O)N[C@H](c1cn2ncc(C(NC(=O)CCC(F)(F)F)C3CC3)cc2n1)C1CCC(F)(F)CC1 (single isomer, unassigned) [Example 23, N—((S)-(7-((R*)-Cyclopropyl(4,4,4-trifluorobutanamido)methyl)imidazo[1,2-b]pyridazin-2-yl)(4,4-difluorocyclohexyl)methyl)-1-methyl-1H-pyrazole-5-carboxamide] | – | 82 |
